Reference: ChEMBL document CHEMBL2406949, “Novel chlorinated dibenzofurans isolated from the cellular slime mold, Polysphondylium filamentosum, and their biological activities” (Bioorg Med Chem, 2013)
Activity calls are given as the source filed them. The rule behind the calls is not given here.

Columns and labels:
[1] = tested on: Dictyostelium discoideum; test: Induction of stalk cell differentiation in Dictyostelium discoideum HM44 at 1 nM after 2 days by phase-contrast microscopy; format: functional
[2] = tested on: HeLa; test: Growth inhibition of human HeLa cells at 5 uM after 3 days by Alamar blue assay; format: functional, cell-based
[3] = tested on: Dictyostelium discoideum; test: Induction of stalk cell differentiation in Dictyostelium discoideum HM44 at […] after 2 days by phase-contrast microscopy; format: functional, organism-based
[4] = Cytotoxicity against Drosophila melanogaster S2 cells assessed as inhibition of beta-galactosidase gene expression; format: cell-based
[5] = tested on: S2; test: Inhibition of heat shock-mediated activation of hs-Gal4/UAS-lacZ gene expression in Drosophila melanogaster S2 cells after 12 hrs by beta-galactosidase reporter assay; format: functional, cell-based
[6] = tested on: 3T3-L1; test: Growth inhibition of mouse 3T3L1 cells at 10 uM after 3 days by Alamar blue assay; format: cell-based; conditions: 3t3-l1, 72 h
[7] = tested on: K562; test: Growth inhibition of human K562 cells at 2 uM after 3 days by Alamar blue assay; format: functional, cell-based
[8] = tested on: S2; test: Inhibition of innate immune response in Drosophila melanogaster S2 cells assessed as reduction in DAP-type peptidoglycans-mediated activation of Dpt-LacZ gene expression at 1 uM after 12 hrs by beta-galactosidase reporter assay; format: functional, cell-based
[9] = Cytotoxicity against Drosophila melanogaster S2 cells assessed as cell viability up to 1 uM; format: cell-based
[10] = tested on: Dictyostelium discoideum; test: Induction of stalk cell differentiation in Dictyostelium discoideum HM44 after 2 days by phase-contrast microscopy; format: functional, organism-based

| SMILES | Activity [1] [%] | growth inhibition (GI) [2] | Activity [3] | Activity [4] | inhibition [5] | growth inhibition (GI) [6] | growth inhibition (GI) [7] | inhibition [8] | Activity [9] | Activity [10] |
| --- | --- | --- | --- | --- | --- | --- | --- | --- | --- | --- |
| CCCCCC(=O)c1c(O)c(Cl)c(OC)c(Cl)c1O | >80 | – | – | – | – | – | – | – | – | – |
| CCCCCC(=O)c1c(OC)c(Cl)c2oc3c(Cl)c(OC)c(Cl)c(O)c3c2c1O | – | Active | inactive | Non-toxic | Dose-dependent effect | Toxic | Active | Active | Non-toxic | – |
| CCCC(=O)c1c(OC)c(Cl)c2oc3c(Cl)c(OC)c(Cl)c(O)c3c2c1O | – | Active | – | Non-toxic | Dose-dependent effect | Toxic | Active | Active | Non-toxic | Dose-dependent effect |
| CCCC(=O)c1c(OC)c(Cl)c2oc3c(Cl)c(OC)c(Cl)c(O)c3c2c1OC | – | inactive | inactive | – | – | Non-toxic | inactive | inactive | – | – |
